Assay results reported in patent US20050042213A1, “Methods and pharmaceutical compositions for modulating heparanase activation and uses thereof” (InSight Biopharmaceuticals Ltd., priority 2003, published 2005).

Tests used:
[1] = test system: MPanc-96 pancreatic tumor cells; assay: MPanc-96 pancreatic tumor xenograft in SCID mice; assay type: in vivo
Protocol: Mpanc-96 tumor cell injection—MPanc-96 pancreatic tumor cells were obtained from the ATCC(CCL-2380). On day 1, cells (5×10^6 cells/0.2 ml RPMI+FBS) were subcutaneously injected to the right flank, midway between the axillary and inguinal regions, of SCID mice. Prior to injection the cells were mixed by gentle vortexing. The cells were injected using a 25G needle, and the appearance of a bulge was observed. Following injection to animals, cells were counted in the leftover tubes with trypan blue, and re-cultured to test proliferation.
Compound 5 injections—Tumors were measured prior to inhibitor injection. […] The animals were injected intraperitoneally, daily, twice a day, starting 6 days after tumor cells injection, with 50 μl plain DMSO or 50 μl of Compound 5 in DMSO (8 mg/ml in DMSO).
Tumor growth—Tumor size was measured in two perpendicular dimensions, twice a week using digital calipers. Volumes were estimated using the formula (α^2×β)/2, where α is the shorter of the two dimensions, and β is the longer of the two dimensions.
Study termination—At the end of the study, 21 days following tumor cell injection, animals were euthanized by IP veterinary penthal injection. In case of severe weight loss (>20%), a tumor>1000 mm^3 or depression, an animal was euthanized prior to the study's termination day. Upon animal death prior to the end of the study, body weight and tumor size were measured.

VEGF = target: T1, VEGF (Homo sapiens, UniProt P15692); assay: Elisa assay for binding of VEGF to heparin; conditions: inhibition of VEGF binding to heparin
T1 sequence (P15692 27-191 isoform P15692-4): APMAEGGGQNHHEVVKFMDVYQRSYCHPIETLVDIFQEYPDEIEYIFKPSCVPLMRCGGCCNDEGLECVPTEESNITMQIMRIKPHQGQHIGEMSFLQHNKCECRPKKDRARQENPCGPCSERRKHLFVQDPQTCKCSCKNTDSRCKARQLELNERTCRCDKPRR
Protocol: Elisa assay for determination of binding of VEGF to heparin—96 well microplates were coated overnight with Heparin-albumin (Lizard) and blocked with 1% BSA in PBS with 0.05% Tween and 0.01% thimerosal for 2 hrs. VEGF was added to the plates at a concentration of 2 ng/ml and incubated for 45 min. at 23-25° C. The amount of VEGF bound to heparin was detected using anti-VEGF monoclonal antibody (Sigma Cat. # V4758) at a concentration of 0.26 μg/ml and secondary antibodies Sheep anti-mouse IgG linked to horseradish peroxidase (1:2000). TMB (Pierce Cat. #34021) was used as a substrate for peroxidase.
The plates were read at 450 nm with a reference wavelength of 630 nm using a VERSAmax plate reader. […] Percent inhibition was calculated as compared with the control reactions pre-incubated with 1% DMSO only.

[2] = target: T2, pro-heparanase transiently expressed in 293 cells (Homo sapiens, UniProt Q9Y251, K307R); assay: Pro-heparanase processing in transiently transfected 293 cells (Western blot); assay type: cell-based
T2 sequence (Q9Y251 36-543 K307R): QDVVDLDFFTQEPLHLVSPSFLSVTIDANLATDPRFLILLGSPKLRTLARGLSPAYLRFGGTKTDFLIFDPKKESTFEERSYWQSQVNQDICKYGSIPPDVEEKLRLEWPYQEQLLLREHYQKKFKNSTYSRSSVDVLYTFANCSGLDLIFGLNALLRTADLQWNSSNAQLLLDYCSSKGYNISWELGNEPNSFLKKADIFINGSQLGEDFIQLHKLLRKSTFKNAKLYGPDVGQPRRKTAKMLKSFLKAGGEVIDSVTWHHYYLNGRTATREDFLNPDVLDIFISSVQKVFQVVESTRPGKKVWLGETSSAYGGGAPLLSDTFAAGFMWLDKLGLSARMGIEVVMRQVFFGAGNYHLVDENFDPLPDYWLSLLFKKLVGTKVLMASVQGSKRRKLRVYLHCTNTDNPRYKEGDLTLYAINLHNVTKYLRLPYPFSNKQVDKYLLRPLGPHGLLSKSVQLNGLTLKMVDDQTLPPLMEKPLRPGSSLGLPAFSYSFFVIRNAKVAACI
Protocol: Western blot analysis—Western blot analysis was performed using rabbit anti-heparanase polyclonal antibodies as described in U.S. Pat. Nos. 6,177,545; 6,531,129; and 6,562,950.
Transient transfections—293 cells (200,000) were plated onto a 6 well tissue culture plate. 24 hrs later, the cells were transfected with 1 μg pSI (Promega) hpa plasmid (U.S. Pat. No. 6,475,763) in 3 μl Fugene reagent that was pre-incubated for 15 min in 100 μl medium without serum. Cells were treated with inhibitors 4 and 17 hrs following transfection.

pro-heparanase (H60) = target: T3, pro-heparanase (H60) (Homo sapiens, UniProt Q9Y251, K307R); assay: Pro-heparanase activation in a cell-based assay (293 cells, DMB assay); conditions: inhibition of pro-heparanase activation (H60); Table 15
T3 sequence (Q9Y251 36-543 K307R): T2 sequence (Q9Y251 36-543 K307R)

HT1080 cells = assay: In vitro assay of invasion inhibition (matrigel, BD BioCoat); assay type: cell-based; conditions: Homo sapiens, HT-1080
Protocol: In vitro assay of invasion inhibition—The ability of the compounds of the invention to inhibit cell invasion was determined quantitatively by the in vitro Endothelial Cell Migration assay using a BD BioCoat Angiogenesis System kit. The kit consisted of a 24-multiwell insert plate (FluoroBlok, BD Falcon) containing a microporous (3.0 μm pore size) polyethylene terephthalate (PET) membrane that was capable of blocking fluorescence completely (>99% efficiency). This membrane was uniformly coated with matrigel (BD Matrigel Matrix). The uniform layer of matrigel matrix served as a reconstituted authentic basement membrane in vitro, providing a true barrier to non-invasive cells, but allowing endothelial cells to attach to the membrane and freely migrate towards an angiogenic stimulus in the lower chamber of the insert plate. Post-labeling the cells with a fluorescent dye and measuring the fluorescence of invading cells in a fluorescent plate reader, provided quantitative measurement of cell invasion.
To cover the optimal seeding density for HT1080 cells, suspensions containing various cell concentrations were prepared: 1 ml of 3×10^5 cells/ml, 8 ml of 1.5×10^5 cells/ml and 1 ml of 0.75×10^5 cells/ml. […] Only those labeled cells that have invaded the matrigel and passed through the pores of the PET membrane, were detected.

IC50 (VEGF): 3.2 µM
pro-heparanase expression [2]: did not affect pro-heparanase expression
IC50 (pro-heparanase (H60)): 0.13 µM
IC50 (HT1080 cells): 12 µM
Structure (SMILES): O=C(O)CCCN1C(=O)C(=Cc2ccc(-c3ccc([N+](=O)[O-])cc3)o2)SC1=S [Compound 5]
reduction of tumor volume ([1]; 10 mg/kg/day, compared with 40 mg/kg/day): twice as much reduction
reduction of tumor volume ([1]; 40 mg/kg/day, intraperitoneally, SCID mice): 35%
tumor growth in SCID mice ([1]; mouse, in vivo): inhibited tumor growth in SCID mice efficiently
pro-heparanase processing [2]: completely inhibited pro-heparanase processing
